Measured values from patent publication US20240024293A1, “NOMETHIAZOLES AS A TREATMENT FOR RETT SYNDROME” (REVIVO THERAPEUTICS, priority 2019, published 2024).
Counter-ions that a name gives are not always drawn.

Tests used:
[1] = test system: Mecp2 female mice (HET); assay: NeuroCube gait analysis in RETT mouse model; type: in vivo
Experimental: (§1) Experiments employed wild type (WT) mice and Mecp2 female mice (HET) that were provided by The Jackson Laboratory, Bar Harbor, ME.
(§2) Breeding of the experimental mice were done at The Jackson Laboratories and were shipped at approximately 5 weeks of age. Dosing experiments were conducted at approximately 6 weeks of age.
(§3) Treatment Groups (N=20) were as follow: • WT—Vehicle • HET—Vehicle • HET—RIV-0561 (1.35 mg/kg; ip QD)+0.675 mg/ml of RIV-0561 in drinking water • HET—RIV-0561 (13.5 mg/kg; ip QD)+0.675 mg/ml of RIV-0561 in drinking water
(§4) NeuroCube® and Startle experiments were conducted when mice were at 8 and 12 weeks of age. All tests were conducted within 2 hours post IP dosing.
NeuroCube® system is a proprietary gait analysis system. The platform employs computer vision to detect changes in gait geometry and gait dynamics in rodent models of neurological disorders, pain, and neuropathies. This platform is unique for gait testing for the following reasons: (1) it is completely automated and thus removes any bias or subjectivity; (2) the system captures both gait geometry and gait dynamics (stance, swing, propulsion, etc.); and (3) the sensitivity of the computer vision and bioinformatics allow the capture of symptoms of the disease model earlier and more accurately.
Mice are placed in the NeuroCube® for a 5-min test. The most dominant features that define the disease phenotype (symptom descriptors) are identified and ranked. Complex bioinformatics algorithms are employed to calculate the discrimination probability between WT and HET mice and can thus detect a test compound's ability to reverse the disease phenotype.

[2] = test system: Mecp2 female mice (HET); assay: Acoustic startle response in RETT mouse model; type: in vivo; conditions: HET mice at 8 weeks of age; all doses tested (1.35 or 13.5 mg/kg ip QD + 0.675 mg/ml in drinking water); FIG. 2
Experimental: as §1, §2, §3, §4
The acoustic startle measures an unconditioned reflex response to external auditory stimulation. Mice were placed in the startle enclosures and secured in the sound-attenuated startle chamber (Med Associates Inc., St Albans, VT) on top of a force transducer plate that measures the force of the movements made by the mouse for a 5 min habituation period of white noise (70 dB). Subsequent test sessions consisted of 10 blocks of eleven trials each. Within each block, stimuli of 70, 75, 80, 85, 90, 95, 100, 105, 110, 115, and 120 dB were presented in a random order with a variable inter-trial interval of mean 15 sec (10-20 sec). […] Responses were recorded for 150 ms from startle onset and were sampled every ms. […]

[3] = Gait features at 12 weeks, HET mice, dose not given

Cc1ncsc1CCO[N+](=O)[O-] [RIV-5061, 2-(4-methylthiazol-5-yl)ethyl nitrate maleate]
% Recovery, Body Motion [1, 3]: 19%
% Recovery, Gait Dynamic and Geometry [1, 3]: 53%
% Recovery, Overall Gait [1, 3]: 24%
% Recovery, Paw Features [1, 3]: 63%
% Recovery, Paw Positioning [1, 3]: 17%
% Recovery, Rhythmicity [1, 3]: 0%
Improvement of important gait features (up to) ([1]; RETT mice, after 12 weeks of treatment, particularly at the lower dose (1.35 mg/kg IP daily + 0.675 mg/ml in drinking water)): > 60%
Startle response [2]: tendency to improve startle response
